Test results reported in patent US11045455B2, “Azetidine derivative, preparation method therefor, and use thereof” (SICHUAN KELUN-BIOTECH BIOPHARMACEUTICAL CO., LTD., priority 2016, dated 2021).
Counter-ions that a name gives are not always drawn. Like-named read-outs stand apart in the source and are kept apart here.

Tests used:
JAK1 = JAK1 (Homo sapiens (Human), UniProt P23458); assay: JAK1 enzymatic inhibition assay (ADP-Glo luminescence); assay type: biochemical
Protocol: (§2) Test Materials • JAK1, JAK2, JAK3 and TYK2 enzymes were purchased from Life Technologies; and substrate GFP-STAT1 was purchased from Life Technologies.
(§3) Test compounds, enzymes, the substrate and ATP were diluted to the desired concentrations with the assay buffer (40 mM Tris-HCl, pH 7.4, 20 mM MgCl2, 0.1% BSA). The former three were added into a multiple well plate, and incubated at room temperature after being mixed homogeneously. ATP was added to initiate the kinase reaction, and incubation at room temperature was performed. ADP-Glo was added, and incubation at room temperature was performed. The kinase detector reagent was then added, and incubation at room temperature was performed. The luminescence intensity of each test group was detected, and the half maximal inhibitory concentration (IC50) value was calculated.

JAK2 = JAK2 (Homo sapiens (Human), UniProt O60674); assay: JAK2 enzymatic inhibition assay (ADP-Glo luminescence); assay type: biochemical
JAK2, sequence (O60674 whole entry): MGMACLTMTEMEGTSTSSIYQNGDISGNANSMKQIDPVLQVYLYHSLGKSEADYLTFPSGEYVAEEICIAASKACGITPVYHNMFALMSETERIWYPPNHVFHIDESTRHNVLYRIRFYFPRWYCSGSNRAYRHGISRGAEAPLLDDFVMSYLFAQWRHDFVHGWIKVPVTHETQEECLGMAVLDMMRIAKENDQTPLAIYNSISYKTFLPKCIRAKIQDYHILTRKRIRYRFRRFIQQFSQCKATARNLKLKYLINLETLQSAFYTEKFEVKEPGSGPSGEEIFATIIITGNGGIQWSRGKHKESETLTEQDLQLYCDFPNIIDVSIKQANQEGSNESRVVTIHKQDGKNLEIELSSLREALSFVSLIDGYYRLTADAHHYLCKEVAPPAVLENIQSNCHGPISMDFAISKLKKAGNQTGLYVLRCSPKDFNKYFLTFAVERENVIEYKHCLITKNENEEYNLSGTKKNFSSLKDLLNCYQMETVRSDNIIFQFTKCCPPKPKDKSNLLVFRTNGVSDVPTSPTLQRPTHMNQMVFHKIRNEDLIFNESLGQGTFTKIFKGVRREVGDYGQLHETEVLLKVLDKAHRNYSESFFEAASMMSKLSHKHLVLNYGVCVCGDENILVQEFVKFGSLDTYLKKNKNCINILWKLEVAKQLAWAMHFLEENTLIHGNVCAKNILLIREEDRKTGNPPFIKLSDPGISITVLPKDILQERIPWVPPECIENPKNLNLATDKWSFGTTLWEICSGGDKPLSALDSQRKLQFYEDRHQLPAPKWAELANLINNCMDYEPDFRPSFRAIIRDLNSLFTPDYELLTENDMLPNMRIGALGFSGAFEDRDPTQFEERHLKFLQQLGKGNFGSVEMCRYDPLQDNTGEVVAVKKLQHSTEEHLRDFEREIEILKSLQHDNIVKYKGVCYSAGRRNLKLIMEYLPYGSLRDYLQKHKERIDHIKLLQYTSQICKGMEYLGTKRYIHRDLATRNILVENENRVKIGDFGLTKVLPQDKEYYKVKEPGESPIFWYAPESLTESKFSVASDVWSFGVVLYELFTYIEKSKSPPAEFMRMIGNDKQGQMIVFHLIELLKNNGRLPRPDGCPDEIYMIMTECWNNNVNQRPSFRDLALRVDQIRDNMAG
Protocol: as §2, §3

hERG potassium channel = hERG potassium channel (Homo sapiens (Human), UniProt Q12809); assay: Predictor hERG Fluorescence Polarization Assay; assay type: binding; details: tested at 3, 10 and 30 μM
hERG potassium channel, sequence (Q12809 whole entry): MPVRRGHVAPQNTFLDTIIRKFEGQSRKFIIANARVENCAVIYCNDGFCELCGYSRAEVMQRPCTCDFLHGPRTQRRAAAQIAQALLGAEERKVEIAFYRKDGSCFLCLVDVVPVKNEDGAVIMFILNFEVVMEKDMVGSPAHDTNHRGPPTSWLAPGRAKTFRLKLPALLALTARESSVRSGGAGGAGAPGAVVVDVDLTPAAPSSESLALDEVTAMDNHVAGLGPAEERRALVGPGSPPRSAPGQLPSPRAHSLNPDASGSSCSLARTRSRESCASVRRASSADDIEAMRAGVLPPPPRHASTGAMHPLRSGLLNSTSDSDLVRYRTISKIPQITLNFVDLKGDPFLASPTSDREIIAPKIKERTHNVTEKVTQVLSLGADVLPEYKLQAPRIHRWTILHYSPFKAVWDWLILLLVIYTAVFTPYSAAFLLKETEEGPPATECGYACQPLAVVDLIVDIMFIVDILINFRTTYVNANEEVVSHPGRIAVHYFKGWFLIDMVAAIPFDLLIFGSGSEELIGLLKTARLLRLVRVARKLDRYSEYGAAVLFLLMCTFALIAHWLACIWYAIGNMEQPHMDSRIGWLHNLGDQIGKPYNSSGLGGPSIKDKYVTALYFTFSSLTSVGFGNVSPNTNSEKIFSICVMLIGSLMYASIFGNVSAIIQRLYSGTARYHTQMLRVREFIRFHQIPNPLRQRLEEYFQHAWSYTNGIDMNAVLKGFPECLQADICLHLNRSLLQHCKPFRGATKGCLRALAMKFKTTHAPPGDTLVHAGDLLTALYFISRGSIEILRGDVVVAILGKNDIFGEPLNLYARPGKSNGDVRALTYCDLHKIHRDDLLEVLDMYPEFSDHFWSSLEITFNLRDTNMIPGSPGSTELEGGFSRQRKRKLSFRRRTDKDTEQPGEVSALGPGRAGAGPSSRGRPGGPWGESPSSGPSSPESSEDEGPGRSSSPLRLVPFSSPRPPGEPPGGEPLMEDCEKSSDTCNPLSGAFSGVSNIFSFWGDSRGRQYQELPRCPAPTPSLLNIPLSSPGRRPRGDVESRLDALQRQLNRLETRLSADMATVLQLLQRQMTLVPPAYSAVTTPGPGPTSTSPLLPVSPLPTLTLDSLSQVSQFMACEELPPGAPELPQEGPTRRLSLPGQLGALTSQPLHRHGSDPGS
Protocol: Experimental Example 2: Safety Test
The effect of test compounds on hERG potassium channel were determined using Predictor™ hERG Fluorescence Polarization Assay at concentrations of 3, 10, and 30 μM.

JAK3 = JAK3 (Homo sapiens (Human), UniProt P52333); assay: JAK3 enzymatic inhibition assay (ADP-Glo luminescence); assay type: biochemical
Description: (§1) Experimental Example 1: JAK1, JAK2, JAK3 and TYK2 Enzymatic Inhibition Assay

TYK2 = TYK2 (Homo sapiens (Human), UniProt P29597); assay: TYK2 enzymatic inhibition assay (LanthaScreen TR-FRET); assay type: biochemical
TYK2, sequence (P29597 whole entry): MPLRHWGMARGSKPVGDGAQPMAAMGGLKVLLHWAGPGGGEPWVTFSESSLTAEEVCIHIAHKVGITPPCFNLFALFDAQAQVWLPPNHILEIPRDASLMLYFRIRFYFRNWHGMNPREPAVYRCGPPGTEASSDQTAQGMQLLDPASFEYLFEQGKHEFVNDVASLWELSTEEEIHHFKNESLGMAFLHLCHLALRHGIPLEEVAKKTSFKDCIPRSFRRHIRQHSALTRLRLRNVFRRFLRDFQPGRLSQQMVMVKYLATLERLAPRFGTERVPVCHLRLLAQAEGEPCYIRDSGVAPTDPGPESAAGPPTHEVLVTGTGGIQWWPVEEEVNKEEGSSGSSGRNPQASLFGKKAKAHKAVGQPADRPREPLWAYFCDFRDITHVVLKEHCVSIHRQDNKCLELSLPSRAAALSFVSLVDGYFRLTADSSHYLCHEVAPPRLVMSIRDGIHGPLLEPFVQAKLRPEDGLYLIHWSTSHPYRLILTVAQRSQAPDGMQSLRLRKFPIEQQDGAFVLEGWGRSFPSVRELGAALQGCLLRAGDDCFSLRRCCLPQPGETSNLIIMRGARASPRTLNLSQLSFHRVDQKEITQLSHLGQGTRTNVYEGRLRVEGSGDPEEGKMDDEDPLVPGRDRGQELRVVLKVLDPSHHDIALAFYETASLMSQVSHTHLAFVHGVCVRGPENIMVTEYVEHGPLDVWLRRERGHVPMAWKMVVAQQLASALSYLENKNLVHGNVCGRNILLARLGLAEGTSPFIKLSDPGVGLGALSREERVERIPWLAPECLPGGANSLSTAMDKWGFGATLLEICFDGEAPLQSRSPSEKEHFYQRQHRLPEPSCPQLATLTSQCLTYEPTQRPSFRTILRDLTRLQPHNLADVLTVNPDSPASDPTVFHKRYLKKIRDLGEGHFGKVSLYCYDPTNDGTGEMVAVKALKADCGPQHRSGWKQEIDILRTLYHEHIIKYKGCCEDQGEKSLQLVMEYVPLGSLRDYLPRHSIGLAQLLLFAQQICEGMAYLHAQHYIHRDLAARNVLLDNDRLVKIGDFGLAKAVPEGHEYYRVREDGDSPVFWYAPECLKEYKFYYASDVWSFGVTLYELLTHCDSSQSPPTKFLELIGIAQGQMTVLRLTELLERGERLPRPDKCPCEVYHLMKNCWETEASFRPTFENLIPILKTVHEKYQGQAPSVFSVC
Protocol: as §1
As for the TYK2 enzyme, Tb-anti-pSTAT1 was added, and incubation at room temperature was performed.

[1] = Pharmacokinetic study in rats, intravenous (IV) administration; assay type: in vivo; details: male, SD, rat, plasma, IV administration at 1 mg/kg, 0-24 h
Protocol: Experimental Example 3: Pharmacokinetic Studies
To study the pharmacokinetic characteristics of test compounds, the test compounds were administrated by intravenous (IV) and gavage (PO) routes to male SD rats. The dosage for IV administration was 1 mg/kg, and that for PO administration was 0.5-5 mg/kg. The vehicle is 10% DMSO: 10% solutol: 80% physiological saline, or 5% DMSO: 5% solutol: 90% physiological saline, or 10% DMSO: 60% PEG: 30% physiological saline. Blood was collected at various time points after administration. Plasma samples were analyzed by LC-MS/MS after protein precipitation process with acetonitrile.

JAK1, sequence (P23458 whole entry): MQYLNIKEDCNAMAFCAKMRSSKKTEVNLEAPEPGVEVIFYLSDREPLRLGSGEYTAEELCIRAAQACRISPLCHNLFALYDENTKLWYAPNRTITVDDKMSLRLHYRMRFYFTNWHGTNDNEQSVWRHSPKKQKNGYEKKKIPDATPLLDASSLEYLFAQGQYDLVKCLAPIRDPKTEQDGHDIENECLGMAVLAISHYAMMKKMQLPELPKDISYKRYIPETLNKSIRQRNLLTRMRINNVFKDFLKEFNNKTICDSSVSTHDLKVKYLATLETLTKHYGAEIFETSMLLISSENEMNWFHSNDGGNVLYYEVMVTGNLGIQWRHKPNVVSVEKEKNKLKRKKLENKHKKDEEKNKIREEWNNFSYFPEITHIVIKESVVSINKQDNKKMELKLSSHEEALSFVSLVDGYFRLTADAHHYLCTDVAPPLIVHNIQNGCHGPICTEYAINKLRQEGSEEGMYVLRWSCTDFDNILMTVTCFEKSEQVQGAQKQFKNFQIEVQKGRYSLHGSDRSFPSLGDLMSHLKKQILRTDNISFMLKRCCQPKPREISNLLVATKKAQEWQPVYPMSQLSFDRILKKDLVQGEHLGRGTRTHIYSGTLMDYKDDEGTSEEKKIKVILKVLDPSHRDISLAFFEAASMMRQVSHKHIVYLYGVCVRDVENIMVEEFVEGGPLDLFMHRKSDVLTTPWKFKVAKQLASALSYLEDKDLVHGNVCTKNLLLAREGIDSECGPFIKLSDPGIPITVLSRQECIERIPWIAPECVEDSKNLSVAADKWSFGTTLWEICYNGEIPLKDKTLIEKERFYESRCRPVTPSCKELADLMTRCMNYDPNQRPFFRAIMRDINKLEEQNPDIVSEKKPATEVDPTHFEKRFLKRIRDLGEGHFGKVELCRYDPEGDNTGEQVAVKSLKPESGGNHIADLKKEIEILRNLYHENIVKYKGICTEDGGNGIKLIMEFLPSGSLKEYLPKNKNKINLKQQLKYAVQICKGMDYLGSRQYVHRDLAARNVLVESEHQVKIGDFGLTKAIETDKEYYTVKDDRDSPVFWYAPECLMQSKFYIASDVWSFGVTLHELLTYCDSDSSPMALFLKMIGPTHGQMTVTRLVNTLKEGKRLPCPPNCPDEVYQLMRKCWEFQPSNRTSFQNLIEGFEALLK

| IC50 (JAK1) [nM] | IC50 (JAK2) [nM] | IC50 (JAK3) [nM] | IC50 (TYK2) [nM] | AUC(0-t) [1] [ng·h/mL] | IC50 (JAK2; Hydrochloride Salt) [nM] | SMILES | IC50 (hERG potassium channel) [nM] |
| --- | --- | --- | --- | --- | --- | --- | --- |
| 0.78 | 1.98 |  |  |  |  | CC1(S(=O)(=O)N2CC(CC#N)(n3cc(-c4c(C#N)cnc5[nH]ccc45)cn3)C2)CC1 [Compound 1, 4-(1-(3-(cyanomethyl)-1-((1-methylcyclopropyl)sulfonyl)azetidin-3-yl)-1H-pyrazol-4-yl)-1H-pyrrolo[2,3-b]pyridine-5-carbonitrile] | > 30000 |
| 0.17 | 0.42 |  |  |  |  | CS(=O)(=O)N1CC(CC#N)(n2cc(-c3c(C#N)cnc4[nH]ccc34)cn2)C1 [Compound 2, 4-(1-(3-(cyanomethyl)-1-(methylsulfonyl)azetidin-3-yl)-1H-pyrazol-4-yl)-1H-pyrrolo[2,3-b]pyridine-5-carbonitrile] | > 30000 |
|  | 1.81 | 10 to 30 | ~30 |  |  | CCS(=O)(=O)N1CC([C@H](C)C#N)(n2cc(-c3ncnc4[nH]ccc34)cn2)C1 [Compound 12-2, (S)-2-(3-(4-(7H-pyrrolo[2,3-d]pyrimidin-4-yl)-1H-pyrazol-1-yl)-1-(ethylsulfonyl)azetidin-3-yl)propanenitrile] | > 30000 |
| 2.89 | 1.44 | > 30 | ~30 |  |  | CCS(=O)(=O)N1CC(CC#N)(n2cc(-c3ccnc4[nH]ccc34)c(C)n2)C1 [Compound 13, 2-(1-(ethylsulfonyl)-3-(3-methyl-4-(1H-pyrrolo[2,3-b]pyridin-4-yl)-1H-pyrazol-1-yl)azetidin-3-yl)acetonitrile] | > 30000 |
| 1.3 | 0.5 |  |  |  |  | CN(C)S(=O)(=O)N1CC(CC#N)(n2cc(-c3ccnc4[nH]ccc34)cn2)C1 [Compound 14, 3-(4-(1H-pyrrolo[2,3-b]pyridin-4-yl)-1H-pyrazol-1-yl)-3-(cyanomethyl)-N,N-dimethylazetidine-1-sulfonamide] | > 30000 |
| 1.13 | 0.93 |  |  |  |  | CCS(=O)(=O)N1CC(CC#N)(n2ccc(-c3c(C#N)cnc4[nH]ccc34)c2)C1 [Compound 17, 4-(1-(3-(cyanomethyl)-1-(ethylsulfonyl)azetidin-3-yl)-1H-pyrrol-3-yl)-1H-pyrrolo[2,3-b]pyridine-5-carbonitrile] | > 30000 |
| 2.41 | 0.89 |  |  |  |  | CCCS(=O)(=O)N1CC(CC#N)(n2cc(-c3ccnc4[nH]ccc34)cn2)C1 [Compound 23, 2-(3-(4-(1H-pyrrolo[2,3-b]pyridin-4-yl)-1H-pyrazol-1-yl)-1-(propylsulfonyl)azetidin-3-yl)acetonitrile] | > 30000 |
| 0.46 | 0.37 |  |  |  |  | N#CCC1(n2cc(-c3ccnc4[nH]ccc34)cn2)CN(S(=O)(=O)C2CC2)C1 [Compound 26, 2-(3-(4-(1H-pyrrolo[2,3-b]pyridin-4-yl)-1H-pyrazol-1-yl)-1-(cyclopropylsulfonyl)azetidin-3-yl)acetonitrile] | > 30000 |
| 0.72 | 1.23 | 23.6 |  | 540 |  | CC1(S(=O)(=O)N2CC(CC#N)(n3cc(-c4ccnc5[nH]ccc45)cn3)C2)CC1 [Compound 31, 2-(3-(4-(1H-pyrrolo[2,3-b]pyridin-4-yl)-1H-pyrazol-1-yl)-1-((1-methylcyclopropyl)sulfonyl)azetidin-3-yl)acetonitrile] | > 30000 |
| 0.8 | 1.66 |  |  |  |  | CN(C)S(=O)(=O)N1CC(CC#N)(n2cc(-c3c(C#N)cnc4[nH]ccc34)cn2)C1 [Compound 34, 3-(4-(5-cyano-1H-pyrrolo[2,3-b]pyridin-4-yl)-1H-pyrazol-1-yl)-3-(cyanomethyl)-N,N-dimethylazetidine-1-sulfonamide] |  |
| 1.46 | 1.4 | > 30 | > 30 |  |  | N#CCC1(n2cc(-c3ccnc4[nH]ccc34)cn2)CN(S(=O)(=O)N2CCCC2)C1 [Compound 35, 2-(3-(4-(1H-pyrrolo[2,3-b]pyridin-4-yl)-1H-pyrazol-1-yl)-1-(pyrrolidin-1-ylsulfonyl)azetidin-3-yl)acetonitrile] | > 30000 |
| 0.97 | 2.24 |  |  |  |  | CCCS(=O)(=O)N1CC(CC#N)(n2cc(-c3c(C#N)cnc4[nH]ccc34)cn2)C1 [Compound 40, 4-(1-(3-(cyanomethyl)-1-(propylsulfonyl)azetidin-3-yl)-1H-pyrazol-4-yl)-1H-pyrrolo[2,3-b]pyridine-5-carbonitrile] |  |
| 1.95 | 3.93 |  |  |  |  | N#CCC1(n2cc(-c3c(C#N)cnc4[nH]ccc34)cn2)CN(S(=O)(=O)CCC(F)(F)F)C1 [Compound 44, 4-(1-(3-(cyanomethyl)-1-((3,3,3-trifluoropropyl)sulfonyl)azetidin-3-yl)-1H-pyrazol-4-yl)-1H-pyrrolo[2,3-b]pyridine-5-carbonitrile] |  |
| 1.66 | 3.22 |  |  |  |  | CCS(=O)(=O)N1CC(C(C)C#N)(n2cc(-c3c(C#N)cnc4[nH]ccc34)cn2)C1 (centres unmarked) [Compound 45, 4-(1-(3-(1-cyanoethyl)-1-(ethylsulfonyl)azetidin-3-yl)-1H-pyrazol-4-yl)-1H-pyrrolo[2,3-b]pyridine-5-carbonitrile] |  |
| 1.65 | 1.17 | 10 to 30 | ~30 |  |  | CCS(=O)(=O)N1CC([C@@H](C)C#N)(n2cc(-c3c(C#N)cnc4[nH]ccc34)cn2)C1 [Compound 45-1, (R)-4-(1-(3-(1-cyanoethyl)-1-(ethylsulfonyl)azetidin-3-yl)-1H-pyrazol-4-yl)-1H-pyrrolo[2,3-b]pyridine-5-carbonitrile] | > 30000 |
| 1.85 | 1.11 | 10 to 30 | ~30 |  |  | CCS(=O)(=O)N1CC([C@H](C)C#N)(n2cc(-c3c(C#N)cnc4[nH]ccc34)cn2)C1 [Compound 45-2, (S)-4-(1-(3-(1-cyanoethyl)-1-(ethylsulfonyl)azetidin-3-yl)-1H-pyrazol-4-yl)-1H-pyrrolo[2,3-b]pyridine-5-carbonitrile] | > 30000 |
|  |  |  |  |  | 0.62 | CCS(=O)(=O)N1CC(CC#N)(n2cc(-c3c(Cl)cnc4[nH]ccc34)cn2)C1 [Compound 50-HCl, 2-(3-(4-(5-chloro-1H-pyrrolo[2,3-b]pyridin-4-yl)-1H-pyrazol-1-yl)-1-(ethylsulfonyl)azetidin-3-yl)acetonitrile Hydrochloride Salt] |  |
|  |  |  |  |  | 0.35 | CCS(=O)(=O)N1CC(CC#N)(n2cc(-c3c(F)cnc4[nH]ccc34)cn2)C1 [Compound 52-HCl, 2-(1-(ethylsulfonyl)-3-(4-(5-fluoro-1H-pyrrolo[2,3-b]pyridin-4-yl)-1H-pyrazol-1-yl)azetidin-3-yl)acetonitrile Hydrochloride Salt] |  |
| 3.52 | 1.76 |  |  |  |  | CCS(=O)(=O)N1CC(CC#N)(n2cc(C)c(-c3ncnc4[nH]ccc34)c2)C1 [Compound 56, 2-(1-(ethylsulfonyl)-3-(3-methyl-4-(7H-pyrrolo[2,3-d]pyrimidin-4-yl)-1H-pyrrol-1-yl)azetidin-3-yl)acetonitrile] |  |
